Reference: patent publication US20220218736A1, “NEW THERAPY” (INDEX PHARMACEUTICALS AB, priority 2018, published 2022)
Oligonucleotides are written 5' to 3', each unit as a sugar letter and its base; * is a phosphorothioate linkage, no mark a phosphodiester; rarer units and linkages stand in square brackets, end groups in braces. Plain capitals give the bases only. d = 2'-deoxy (DNA)

Key:
[1] = system: chronic DSS-induced colitis; experiment: Chronic DSS-induced mouse model of colitis; colon length and weight/length ratio; assay type: in vivo, C57BL/6 mice; conditions: Day 30; for colon-shortening effects of DSS (colon length): Days 4-28 every 4 days
Excerpt: The objective of this study was to test the efficacy of cobitolimod as a maintenance therapy in the chronic DSS-induced mouse model of colitis.
37 male C57BL/6 mice were enrolled in the chronic DSS-induced colitis study and housed for a stabilization period of 5 days prior to the study. All animals were housed in HEPA-ventilated cages with sani-chips bedding. Domes and sterile cotton scratch pads were provided for enrichment. Fluorescent lighting was provided on a 12-hour cycle. Temperature and humidity were monitored and recorded daily and maintained to 20-23° C. temperature, and 30-70% relative humidity. 2018S 18% protein rodent maintenance diet was provided ad libitum.
Cobitolimod was diluted in saline either to 125 μg/100μ1 (1.25 μg/μl, dose 1) or 500 μg/100 μl (5 μg/μl, dose 2) in the beginning of the experiment. The solution was aliquoted and kept at 4° C. for the duration of the experiment. At each administration day 100 μl was administered to the mice rectally. FTY-720 (S1P1 receptor inhibitor) was dissolved in dH2O and served as positive control. For a dose of 1 mg/kg, using an average body weight of 30 grams, the compound was prepared and 100 μL orally dosed daily to each animal.
9 week old mice received 2% DSS dissolved into autoclaved water ad libitum (Group 2-5, n=8 each per group) for 5 days, and were switched to autoclaved drinking water for the next five days. This cycle was repeated, alternating between DSS treatment and autoclaved water, every five days for a duration of 30 days in total. During each 5-Day DSS treatment phase, fresh 2% DSS was provided on the third day of the five-day cycle. Group 1 (n=5) served as a control (naïve mice) that received only autoclaved water ad libitum throughout the study. On Day 4, mice in Group 3 (n=8) were orally dosed with FTY-720 as positive control (Group 3, n=8) and continued daily dose until end of the study. Also starting on Study Day 4, animals were dosed with Vehicle (Group 2, […]), or with two different doses of cobitolimod (Group 4 and Group 5, n=8 per group) intrarectally. […] Groups 2, 4, and 5 were dosed again on Days 8, 12, 16, 20, 24, and 28.
Body weight, stool consistency, stool blood, body condition score, and physical health were recorded on dosing days, and two days after each dosing day from at Day 0 through termination on Study Day 30. […] Animals that lost greater than 20% of their pre-treatment body weight were monitored and fed diet/hydro gel for 72 hrs. No animals were terminated due to prolonged body weight loss, or signs of pain and distress due to disease.
The study was terminated on Day 30, and necropsy was performed on all animals. Spleens were weighed and then discarded. Colon length and weight was recorded, and the weight/length ratio calculated for each animal. […]

[2] = system: patients with moderate-to-severe active UC; experiment: Randomized, double-blind, placebo-controlled clinical trial of cobitolimod; symptomatic remission; assay type: in vivo, human
Experimental: In this randomized, double-blind, placebo-controlled trial, 131 patients with moderate-to-severe active UC were randomized to receive two single doses of the oligonucleotide cobitolimod [30 mg] or placebo administered topically during lower GI endoscopy at baseline and Week 4. The primary endpoint was clinical remission, defined as Clinical Activity (Rachmilewitz) Index [CAI]≤4, at Week 12. Secondary endpoints included mucosal healing and symptomatic remission of key patient-reported outcomes [absence of blood in stool and weekly stool frequency <35].
Eligible patients were adults with moderate to severely active ulcerative colitis with a Clinical Activity Index [CAI] of ≥9 and an endoscopic Mayo score of ≥2, despite treatment with glucocorticosteroids [GCS] [prednisolone] equivalent ≥10 mg/day] for ≥2 weeks prior to inclusion, and previously having failed or been intolerant to treatment with mesalazine ≥2.4 g/day for ≥4 weeks, GCS with at least 0.75 mg/kg as a starting dose, azathioprine or mercaptopurine for ≥3 months, and/or one adequate treatment course of a TNF-α inhibitor. Patients may have tried treatment with cyclosporine or tacrolimus before the trial. Four patients in the placebo group [9.3%] and 5 patients in the cobitolimod group [6.2%] had used cyclosporine prior to the study start, but not in the study.
During the trial, patients could be taking sulfasalazine, aminosalicylates, or thiopurines, and should be on oral GCS at stable doses. Concurrent therapies with cyclosporine, tacrolimus or TNF-α inhibitors during the trial or in the 4 weeks before enrolment, or antibiotics or non-steroidal anti-inflammatory drugs [NSAIDs] in the 2 weeks before enrolment were not permitted.
Eligible patients were randomized in a 2:1 ratio to receive administration of cobitolimod via endoscopy [30 mg] at Week 0 and 4, or matching placebo diluted in 50 mL of sterile water after adequate bowel cleaning for stool content. The application was done proximally to the site of mucosal inflammation, or in the transverse section of the colon in the event of extensive colitis, using a spray catheter during endoscopy. Patients were asked to remain recumbent for 2 h after administration. Patients were followed up with visits after 1, 4, 8, 12, 22, and 52 weeks. At Weeks 0, 4, and 12, patients underwent endoscopic evaluation and biopsies were taken from the most inflamed mucosal area. ICON [Texas, USA] produced the randomization code by a computer-generated procedure, which used the method of randomly permuted blocks. Oral GCS treatment was mandatory at a stable daily dose of >10 mg initiated at least 2 weeks prior to inclusion. Steroid tapering was done to a standard tapering schedule according to European Crohn's and Colitis Organisation [ECCO] guidelines when the patient had reached clinical remission, the earliest at Week 12.
The primary endpoint was induction of clinical remission at Week 12, defined as a CAI score of ≤4. […] Secondary endpoints included mucosal healing [endoscopic Mayo sub-score ≤1, endoscopies not centrally read]; clinical remission at Weeks 1, 4, 8, 22 and 52; clinical remission and mucosal healing; symptomatic remission [defined as absence of blood in stool and weekly stool frequency of <35]; histological Geboes score at Week 4 and 12 as assessed by a single trial histopathologist; time to colectomy; and quality of life based on the inflammatory bowel disease questionnaire [IBDQ] and the 36-item short-form survey [SF36] score. Post hoc, the combined score for subjects who achieved both symptomatic remission and mucosal healing was defined.

[3] = system: patient with ulcerative colitis refractory to steroids and immunosuppressive therapies; experiment: Compassionate use program, patient p12; colitis activity index (CAI) course; assay type: in vivo, human
Excerpt: This example relates to unpublished experimental data that was collected as part of a compassionate use program. A diagnosis of ulcerative colitis was established based on clinical, endoscopic and histological features. Written consent was received for the patient and the treatment approved by the relevant local ethics committee.
The patient was a person who was first diagnosed with ulcerative colitis 5 years previously and who had become refractory to steroids and immunosuppressive therapies (GCS, infliximab and natural IFN-β). In the form of an experimental add-on therapy, relapses were treated for 4 years with natural Interferon-beta (Fiblaferon). […] A severe relapse in January 2010 was treated with high doses of steroids in combination with azathioprine and 5-ASA without success. […] The treatment with a high dose of steroid in combination with Infliximab had some effect in reducing the CAI score from 14 to 9 in March 2010. However, the subject was still in a very active state of the disease. […]
The patient received 3 doses of 30 mg cobitolimod diluted in 50 mL of sterile water at 4 week intervals as an add on to current therapies. Application of drug was performed during colonoscopy with the aid of a spraying catheter inserted through the colonoscopies biopsy channel and delivered approximately to the upper portion of the descending colon or to the transverse region.
Depicted is the colitis activity index [CAI] against the time in months. […] 2011 when the treating physician last contacted all the patients to follow-up on the treatments.

[4] = second multi-dose regime, until March 2011

## 5′-G*G*A*ACAGTTCGTCCAT*G*G*C-3′ (SEQ ID NO:1) (DNA dG*dG*dA*dAdCdAdGdTdTdCdGdTdCdCdAdT*dG*dG*dC) [cobitolimod]
[1]; 125 μg intrarectally
  colon-shortening effects of DSS (colon length): significantly reduced
  colonic weight/length ratio: decreased
[1]; 500 μg intrarectally
  colon-shortening effects of DSS (colon length): reduced
  colonic weight/length ratio: decreased
[2]; week 4
  delta between active drug and placebo, symptomatic remission: 18.1%
[2]; week 4, 30 mg at week 0, topically during endoscopy
  percentage of patients in symptomatic remission: 32.1%
[2]; week 8
  delta between active drug and placebo, symptomatic remission: 16.8%
[2]; week 8, 30 mg at weeks 0 and 4
  percentage of patients in symptomatic remission: 28.4%
[2]; week 8 as compared to week 4
  decrease in percentage of patients in remission: 3.7%
[2]; week 12
  delta between active drug and placebo, symptomatic remission: 11.8%
[2]; week 12, 30 mg at weeks 0 and 4, no dose at week 8
  percentage of patients in symptomatic remission: 23.5%
[2]; week 12 as compared to week 8
  decrease in percentage of patients in remission: 4.9%
[3]; first multi-dose regime (May, June and July)
  time patient kept in remission by repeat dosing: 3 months
[3]; first multi-dose regime, after week 4, with last dose and steroid tapering
  time complete clinical remission was further maintained: two
[3]; one week after first 30 mg dose, add-on to current therapies
  drop in the CAI score: 4 points
[3]; second multi-dose regime started 25 Aug. 2010
  time to clinical remission: ≤ 4 weeks
[3]; [4]
  time complete clinical remission was maintained: 5 months
  time patient kept in remission by repeat dosing: over five
[3]; week 4 of first multi-dose regime, with continued steroid tapering
  remission status: complete remission
[3]; week 8 of second multi-dose regime
  remission status: complete clinical remission

## Infliximab: TNF-α inhibitor approved for the treatment of moderate to severe ulcerative colitis [reference compound]
[3]; high dose of steroid in combination with Infliximab, reduced from 14, March 2010
  CAI score after treatment: 9
[3]; one dose at the end of January, event in February 2010
  adverse event after treatment: severe salmonellosis with septicemia
